Each structure is given as a SMILES string.

The target in assay [1] is DDB1ΔB-CRBN (Homo sapiens (Human), UniProt Q96SW2). The experiment in a line: Atto565-Lenalidomide displacement assay (fluorescence polarization, CRBN binding). The note with it: for IC50: 10 nM Atto565-Lenalidomide, 100 nM DDB1ΔB-CRBN, n=2; for Ki: calculated from IC50 with probe Kd of 40 nM, competitive model. As to the method:
Various inventive compounds were analyzed for cereblon binding. […] Compound titrations were incubated for 60 min at room temperature. The change in fluorescence polarization was monitored using a PHERAstar® FS microplate reader (BMG Labtech) for 1 h in 120s cycles.

Assay [2] deals with CRBN (Homo sapiens (Human), UniProt Q96SW2). Put plainly: Cellular CRBN dBET6 displacement assay (BRD4BD2-GFP/mCherry reporter cells). The note with it: Flip-In 293 cells stably expressing BRD4BD2-GFP, 100 nM dBET6, 5 hours; read-out: Cellular CRBN-BRD4 dBET6 displacement EC50. In kind it is cell-based. As for the experimental part: BRD4BD2 were subcloned into mammalian pcDNA5/FRT Vector (Ampicillin and Hygromycin B resistant) modified to contain MCS-eGFP-P2A-mCherry. […] Following a 2-3 passage cycle, FACS (FACSAria™ II, BD) was used to enrich for cells expressing eGFP and mCherry.
Signal from minimal 3000 events per well was acquired and the eGFP and mCherry florescence monitored. Data was analyzed using FlowJo® (FlowJo®, LCC). […] The eGFP protein abundance relative to mCherry was then quantified as a ten-fold amplified ratio for each individual cell using the formula: 10×eGFP/mCherry. The median of the ratio was then calculated per set, normalized to the median of the DMSO ratio.
This assay provided a readout of cellular CRBN binding impacted by the permeability of the molecule tested.

Sequence of DDB1ΔB-CRBN (Q96SW2 whole entry, stated change not applied): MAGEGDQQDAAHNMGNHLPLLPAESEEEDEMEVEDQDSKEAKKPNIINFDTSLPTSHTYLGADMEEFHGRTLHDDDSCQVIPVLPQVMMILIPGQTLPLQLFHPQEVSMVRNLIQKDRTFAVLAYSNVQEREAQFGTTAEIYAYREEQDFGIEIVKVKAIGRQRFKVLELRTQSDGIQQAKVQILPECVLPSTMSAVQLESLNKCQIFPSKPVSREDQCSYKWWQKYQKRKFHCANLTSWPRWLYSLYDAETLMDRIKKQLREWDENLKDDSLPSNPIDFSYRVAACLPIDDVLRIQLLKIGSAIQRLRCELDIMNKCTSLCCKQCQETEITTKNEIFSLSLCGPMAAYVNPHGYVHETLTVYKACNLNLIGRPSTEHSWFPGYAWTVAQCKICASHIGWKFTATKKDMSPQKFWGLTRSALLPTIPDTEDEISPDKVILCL
Sequence of CRBN (Q96SW2 whole entry): as the sequence (Q96SW2 whole entry, stated change not applied) above

As a reminder, the IC50 is the concentration at which inhibition is half-maximal. A low value points to inhibition by little substance. As usually defined, the Ki is the equilibrium dissociation constant of an inhibitor or competing ligand from its target. The EC50 is the concentration giving half of the maximal effect. Turning to `O=C1CCC(N2Cc3c(NC(=O)CNc4ccnc(Nc5ccc6c(c5)CCC6)n4)cccc3C2=O)C(=O)N1` (stereo not drawn) [Compound 2, 2-((2-((2,3-dihydro-1H-inden-5-yl)amino)pyrimidin-4-yl)amino)-N-(2-(2,6-dioxopiperidin-3-yl)-1-oxoisoindolin-4-yl)acetamide], in assay [1], the IC50 was found to be 47.5 µM and the Ki is 13.6 µM. Besides, the EC50 in assay [2] was 47.9 µM.
On to `COc1ccc(OC)c(-c2nccc(NCC(=O)Nc3cccc4c3CN(C3CCC(=O)NC3=O)C4=O)n2)c1` (stereo not drawn) [Compound 10, 2-((2-(2,5-dimethoxyphenyl)pyrimidin-4-yl)amino)-N-(2-(2,6-dioxopiperidin-3-yl)-1-oxoisoindolin-4-yl)acetamide], for which, in assay [1], the 50% inhibitory concentration (IC50) amounted to 18.9 µM and the Ki was 5.4 µM.
For `COc1ccc(Nc2nccc(NCC(=O)Nc3cccc4c3CN(C3CCC(=O)NC3=O)C4=O)n2)cc1` (stereo not drawn) [Compound 7, N-(2-(2,6-dioxopiperidin-3-yl)-1-oxoisoindolin-4-yl)-2-((2-((4-methoxyphenyl)amino)pyrimidin-4-yl)amino)acetamide], in assay [1], the IC50 was 38.9 µM and the Ki was 11.1 µM.
On to `O=C1CCC(N2Cc3c(NC(=O)CNc4ccnc(Nc5ccccc5F)n4)cccc3C2=O)C(=O)N1` (stereo not drawn) [Compound 1, N-(2-(2,6-dioxopiperidin-3-yl)-1-oxoisoindolin-4-yl)-2-((2-((2-fluorophenyl)amino)pyrimidin-4-yl)amino)acetamide], for which, in assay [1], the IC50 was 29.7 µM and the Ki is 8.5 µM.
Taken in the same sequence, the figures for `CN(c1ccccc1)c1nccc(NCC(=O)Nc2cccc3c2CN(C2CCC(=O)NC2=O)C3=O)n1` (stereo not drawn) [Compound 17, N-(2-(2,6-dioxopiperidin-3-yl)-1-oxoisoindolin-4-yl)-2-((2-(methyl(phenyl)amino)pyrimidin-4-yl)amino)acetamide] were 3.44 µM and 0.97 µM.
As for `COc1cccc(-c2nccc(NCC(=O)Nc3cccc4c3CN(C3CCC(=O)NC3=O)C4=O)n2)c1` (stereo not drawn) [Compound 9, N-(2-(2,6-dioxopiperidin-3-yl)-1-oxoisoindolin-4-yl)-2-((2-(3-methoxyphenyl)pyrimidin-4-yl)amino)acetamide], in assay [1], the half-maximal inhibitory concentration (IC50) came out at 22.1 µM and the Ki is 6.3 µM.
Consider `COc1ccccc1Nc1nccc(NCC(=O)Nc2cccc3c2CN(C2CCC(=O)NC2=O)C3=O)n1` (stereo not drawn) [Compound 15, N-(2-(2,6-dioxopiperidin-3-yl)-1-oxoisoindolin-4-yl)-2-((2-((2-methoxyphenyl)amino)pyrimidin-4-yl)amino)acetamide], for which, in assay [1], the 50% inhibitory concentration (IC50) stood at 15.2 µM and the inhibitory constant (Ki) is 4.3 µM.

Source of the values: US11530219B2, “Ligands to cereblon (CRBN)” (DANA-FARBER CANCER INSTITUTE, INC., priority 2018, dated 2022).
